Laboratory results from patent US20260232851A1, “METHODS FOR THE DETECTION AND DIAGNOSIS OF CANCERS ASSOCIATED WITH OVEREXPRESSION OF PSMA RECEPTOR” (CLARITY PHARMACEUTICALS LIMITED, priority 2023, published 2026).

Key:
LNCap tumor = assay: Ex vivo tumor uptake in LNCap tumor bearing NSG mice
Text: Ex vivo tumor uptake expressed as percentage injected activitiy per gram of tissue (% lAg) (mean±/−SEM, n=3/group) in LNCap tumor bearing NSG mice following injection of either monomeric [^64Cu]Cu-SarPSMA (2 MBq, 0.9 nmol of peptide) or dimeric [^64Cu]Cu-Sar-bisPSMA (2 MBq, 0.2 nmol of peptide).

PSMA receptor = molecular target: T1, PSMA receptor (Homo sapiens, UniProt Q04609); assay: PET/CT lesion intensity (SUVmax, SUVmean, TTBR) in patients with untreated primary prostate cancer; format: in vivo; conditions: for SUVmax Median Difference / SUVmean Median Difference / TTBR Median Difference: ^64Cu vs ^68Ga
T1 construct: localises at sites that overexpress the PSMA receptor and are indicative of a cancer; from tissue; host or cells: Primary prostate cancer and metastatic lesions (lymph node, bone, prostatic bed) in living patients
T1 sequence (Q04609 whole entry): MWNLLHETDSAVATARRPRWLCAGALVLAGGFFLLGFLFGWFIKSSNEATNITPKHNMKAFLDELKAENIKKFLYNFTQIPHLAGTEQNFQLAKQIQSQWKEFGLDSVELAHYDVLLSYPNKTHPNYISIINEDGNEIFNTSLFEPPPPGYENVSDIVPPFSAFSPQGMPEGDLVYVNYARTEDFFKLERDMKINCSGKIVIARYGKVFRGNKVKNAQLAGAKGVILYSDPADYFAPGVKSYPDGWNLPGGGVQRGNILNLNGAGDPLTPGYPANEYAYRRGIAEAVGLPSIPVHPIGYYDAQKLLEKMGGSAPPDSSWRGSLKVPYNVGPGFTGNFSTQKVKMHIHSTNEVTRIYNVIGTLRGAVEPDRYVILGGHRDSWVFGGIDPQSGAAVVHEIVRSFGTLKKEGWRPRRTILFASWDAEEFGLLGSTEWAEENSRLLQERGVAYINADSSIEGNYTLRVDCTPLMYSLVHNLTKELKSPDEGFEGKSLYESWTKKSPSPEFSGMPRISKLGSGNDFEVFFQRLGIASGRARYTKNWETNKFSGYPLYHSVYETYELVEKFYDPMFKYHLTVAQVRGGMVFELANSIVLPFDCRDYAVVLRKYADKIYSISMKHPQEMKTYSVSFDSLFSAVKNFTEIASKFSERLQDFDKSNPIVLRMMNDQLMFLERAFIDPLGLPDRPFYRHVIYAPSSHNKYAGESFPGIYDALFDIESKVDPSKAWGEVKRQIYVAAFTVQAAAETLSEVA
Procedure: Patients with untreated, histopathology-proven, intermediate- to high-risk PC, planned for radical prostatectomy underwent ^68Ga-PSMA-11 PET/CT per institutional practice and were subsequently allocated to 1 out of 3 dose cohorts (1:1:3) to receive either 100 MBq, 150 MBq or 200 MBq of ^64Cu-SAR-bisPSMA, respectively. The specified dose of ^64Cu-Sar-bisPSMA was administered to each patient as a single bolus IV injection. […] PET/CT scans at other times after injection of the compound were acquired as required.
Patients were scanned using the standard clinical whole-body PET/CT acquisition protocol defined for each clinical site and in accordance with the Image Acquisition Manual, which contains details of scan acquisition, processing parameters and quality assurance procedures. The same scanner was used for each visit. Typical imaging acquisition parameters are below:
Two independent, blinded, central readers assessed the detection of primary PC on the 200 MBq ^64Cu-SAR-bisPSMA PET/CTs as the primary endpoint. To compare the intensity of lesions on ^68Ga-PSMA-11 and ^64Cu-SAR-bisPSMA PET, both readers determined the SUVs (SUVmax, SUVmean) and tumour-to-background ratio (ratio of lesion SUVmax and background SUVmean) in up to 5 concordant lesions between ^68Ga-PSMA-11 and ^64Cu-SAR-bisPSMA PET/CT as an exploratory endpoint.
Tables 1 and 2 below compare SUV parameters obtained from PET/CT images after administration of ^68Ga-PSMA-11 and a dose of 200 MBq of ^64Cu-SAR-bisPSMA from each reader.
Tables 3 and 4 below compare SUV parameters obtained from PET/CT images after administration of ^68Ga-PSMA-11 (200 MBq) and ^64Cu-SAR-bisPSMA (200 MBq) from each reader.

[1] = Table 1, first reader, 200 MBq ^64Cu-SAR-bisPSMA, N=17
[2] = Table 2, second reader, 200 MBq ^64Cu-SAR-bisPSMA, N=13

## Sar-bisPSMA [^64Cu-SAR-bisPSMA]
LNCap tumor; 6 and 24 hours after administration
  Amount retained at the tumor site relative to ^64Cu-SarPSMA (FIG. 1): far greater
LNCap tumor; 1 hour after administration, 2 MBq, n=3/group
  Ex vivo tumor uptake relative to monomeric ^64Cu-Sar-PSMA (FIG. 1): approximately double
LNCap tumor; mouse, in vivo
  Uptake and retention at tumors, dimer versus monomer (FIG. 1): higher uptake and retention
PSMA receptor; [1]
  SUVmax Max: 100
  SUVmax Median: 31.40
  SUVmax Min: 8
  SUVmean Max: 69.9
  SUVmean Mean: 27.25
  SUVmean Median: 21.76
  SUVmean Min: 5.5
  TTBR (Tumour-to-Background Ratio) Mean: 77.25
  TTBR Max: 227.3
  TTBR Median: 49.07
  TTBR Min: 10.3
PSMA receptor; Table 1, first reader, N=17
  SUVmax Median Difference: 14.85
  SUVmean Median Difference: 9.64
  TTBR Median Difference: 27.15
PSMA receptor; Table 1, first reader, ^68Ga-PSMA-11 vs 200 MBq ^64Cu-SAR-bisPSMA PET/CT, concordant lesions averaged per participant, N=17
  SUVmax Mean: 40.28
PSMA receptor; [2]
  SUVmax Max: 100
  SUVmax Median: 41.00
  SUVmax Min: 6.1
  SUVmean Max: 69.9
  SUVmean Mean: 31.78
  SUVmean Median: 28.07
  SUVmean Min: 4.4
  TTBR (Tumour-to-Background Ratio) Mean: 86.40
  TTBR Max: 212.8
  TTBR Median: 76.34
  TTBR Min: 6.7
PSMA receptor; Table 2, second reader, N=13
  SUVmax Median Difference: 27.03
  SUVmean Median Difference: 18.44
  TTBR Median Difference: 45.37
PSMA receptor; Table 2, second reader, ^68Ga-PSMA-11 vs 200 MBq ^64Cu-SAR-bisPSMA PET/CT, concordant lesions averaged per participant, N=13
  SUVmax Mean: 47.37
PSMA receptor; Table 3, first reader, N=28
  SUVmax Max: 100.00
  SUVmax Median: 30.26
  SUVmax Min: 8.00
  SUVmean Max: 69.90
  SUVmean Mean: 27.41
  SUVmean Median: 21.20
  SUVmean Min: 5.40
  TTBR (Tumour-to-Background Ratio) Mean: 83.38
  TTBR Max: 294.10
  TTBR Median: 53.55
  TTBR Min: 10.30
  SUVmax Median Difference: 14.23
  SUVmean Median Difference: 9.26
  TTBR Median Difference: 27.94
PSMA receptor; Table 3, first reader, ^68Ga-PSMA-11 (200 MBq) vs ^64Cu-SAR-bisPSMA (200 MBq) PET/CT, lesions averaged per participant, N=28
  SUVmax Mean: 41.66
PSMA receptor; Table 4, second reader, N=16
  SUVmax Max: 100
  SUVmax Median: 41.66
  SUVmax Min: 6.1
  SUVmean Max: 69.9
